Our source for the EC50 values is BindingDB's records for doi:10.7270/Q2Q52N1X (Vanderbilt Screening Center for GPCRs, Ion Channels and …, 2009).

pEC50: −log10 of the molar value.

The target in the first experiment is T1, Solute carrier family 12 member 5 (Homo sapiens, UniProt Q9H2X9).
T1 sequence (Q9H2X9 whole entry): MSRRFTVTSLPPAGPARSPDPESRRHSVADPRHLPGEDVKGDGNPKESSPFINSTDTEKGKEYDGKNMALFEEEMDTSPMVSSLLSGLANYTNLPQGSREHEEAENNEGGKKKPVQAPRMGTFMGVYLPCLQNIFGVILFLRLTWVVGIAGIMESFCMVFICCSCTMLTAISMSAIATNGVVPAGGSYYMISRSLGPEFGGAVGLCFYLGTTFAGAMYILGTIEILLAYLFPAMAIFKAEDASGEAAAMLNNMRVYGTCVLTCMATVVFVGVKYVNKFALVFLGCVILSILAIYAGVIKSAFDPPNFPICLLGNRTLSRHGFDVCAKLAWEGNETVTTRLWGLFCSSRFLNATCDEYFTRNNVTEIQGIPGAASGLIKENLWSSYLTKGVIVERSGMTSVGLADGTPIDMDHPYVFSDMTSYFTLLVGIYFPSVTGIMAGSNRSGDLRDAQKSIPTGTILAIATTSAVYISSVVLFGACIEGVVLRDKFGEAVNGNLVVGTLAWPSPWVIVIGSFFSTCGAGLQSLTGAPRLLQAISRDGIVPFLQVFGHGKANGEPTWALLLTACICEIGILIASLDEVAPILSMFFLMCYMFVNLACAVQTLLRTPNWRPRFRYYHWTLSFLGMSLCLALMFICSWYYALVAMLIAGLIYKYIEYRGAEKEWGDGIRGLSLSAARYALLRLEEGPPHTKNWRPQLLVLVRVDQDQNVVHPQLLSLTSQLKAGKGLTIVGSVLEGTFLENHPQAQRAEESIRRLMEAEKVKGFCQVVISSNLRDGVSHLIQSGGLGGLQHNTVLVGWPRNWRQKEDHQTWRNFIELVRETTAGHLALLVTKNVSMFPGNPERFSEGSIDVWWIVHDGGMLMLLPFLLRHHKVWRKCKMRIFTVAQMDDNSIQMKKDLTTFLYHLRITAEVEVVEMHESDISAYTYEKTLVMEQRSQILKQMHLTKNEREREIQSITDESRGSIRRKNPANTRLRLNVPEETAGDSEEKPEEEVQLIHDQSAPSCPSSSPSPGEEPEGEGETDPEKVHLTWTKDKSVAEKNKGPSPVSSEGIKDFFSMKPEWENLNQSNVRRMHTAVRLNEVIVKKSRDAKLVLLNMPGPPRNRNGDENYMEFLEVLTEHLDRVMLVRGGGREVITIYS
As to the kind of experiment: concentration-response of KCC2 transport modulators – cell-based, HEK293 KCC2, FluoZin-2 fluorescence, dose response (AID 1736).
Details: not given
The pEC50 is the negative decadic logarithm of the EC50, by convention in mol/L. Low values mean a high EC50, high ones a low EC50. For the compound `CCCCCN1C/C=C\C(c2ccc(OC)cc2)N(Cc2ccc(F)cc2)C(=O)C1` (centres undefined) [(6Z)-1-amyl-4-(4-fluorobenzyl)-5-(4-methoxyphenyl)-5,8-dihydro-2H-1,4-diazocin-3-one], the negative logarithm of the EC50 (pEC50) is 5.10.
In turn, `O=C(CSc1nnc(Cc2ccccc2)o1)c1ccc(F)cc1` [1-(4-fluorophenyl)-2-[[5-(phenylmethyl)-1,3,4-oxadiazol-2-yl]sulfanyl]ethanone] showed a pEC50 of 5.41.
Still for that read-out and setting: the same measure for `CCc1ccc(OCCNC(=O)c2ccccc2SCc2ccc(F)cc2)cc1` [MLS000577152]: 6.52; for `COc1ccccc1NC(=S)NNC1=c2cc(Br)ccc2=NC1=O` [MLS000778253]: 6.44.
The same measure, in the same setting: the same measure for `COc1cc(C(=S)N2CCOCC2)cc(OC)c1OC(=O)Cc1ccccc1` [(2,6-dimethoxy-4-morpholin-4-ylcarbothioyl-phenyl) 2-phenylethanoate]: 5.94.
The same measure, in the same setting: the same measure for `Fc1cccc(F)c1C=NNC(=S)Nc1cccnc1` [1-[(2,6-difluorobenzylidene)amino]-3-(3-pyridyl)thiourea]: 5.23; for `CS(=O)(=O)N(CC(=O)N1CCN(c2ccccc2)CC1)c1cccc(Br)c1` [MLS000110474]: 5.61; for `O=S(=O)(NCc1ccccc1)c1ccc(Cl)c(S(=O)(=O)NCc2ccccc2)c1` [1-N,3-N-dibenzyl-4-chlorobenzene-1,3-disulfonamide]: 5.68.
The compound `Cc1[nH]c2ccccc2c1SCC(=O)N1CCN(c2ccccc2)CC1` [2-[(2-methyl-1H-indol-3-yl)thio]-1-(4-phenyl-1-piperazinyl)ethanone] showed a pEC50 of 4.06.
Still for that read-out and setting: the same measure for `Cc1cccc(OCCc2nnc(N)s2)c1C` [5-[2-(2,3-Dimethyl-phenoxy)-ethyl]-[1,3,4]thiadiazol-2-ylamine]: 4.28; for `Cc1nn(C)c(C)c1C=C1SC(S)=NC1=O` [MLS000324943]: 5.82.
Same read-out and setting: the same measure for `O=C(NNc1nc(-c2ccccc2)cs1)c1ccccc1` [MLS000547345]: 7.53; for `O=C(NCCc1csc(-c2ccccc2)n1)c1cccs1` [MLS000102716]: 5.13; for `COc1cc(OC)c(C2=NOC(C(=O)NCCc3ccccc3)C2)cc1Cl` (centres undefined) [3-(5-chloranyl-2,4-dimethoxy-phenyl)-N-(2-phenylethyl)-4,5-dihydro-1,2-oxazole-5-carboxamide]: 5.20.
The same measure, in the same setting: the same measure for `Cc1noc(/C=C/c2ccco2)c1S(=O)(=O)N1CCC(C(=O)N2CCc3ccccc3C2)CC1` [2-{[1-({5-[(E)-2-(2-furyl)vinyl]-3-methylisoxazol-4-yl}sulfonyl)piperidin-4-yl]carbonyl}-1,2,3,4-tetrahydroisoquinoline]: 5.27.
Compound `COc1ccc(S(=O)(=O)N(C)CC(=O)N2CCN(Cc3ccccc3)CC2)cc1C` [4-methoxy-N,3-dimethyl-N-[2-oxidanylidene-2-[4-(phenylmethyl)piperazin-1-yl]ethyl]benzenesulfonamide] had a pEC50 of 5.45.
Still for that read-out and setting: the value for `NC(=S)NN=C1C(=O)N(Cc2ccc(F)cc2)c2ccccc21` [1-[(Z)-[1-[(4-fluorophenyl)methyl]-2-oxidanylidene-indol-3-ylidene]amino]thiourea] was 4.42; that for `O=C(NCCc1cn2ccccc2n1)c1cc(COc2c(F)cccc2F)on1` [5-[(2,6-difluorophenoxy)methyl]-N-(2-imidazo[1,2-a]pyridin-2-ylethyl)-1,2-oxazole-3-carboxamide] was 5.12; that for `CCCn1c(N)c(C(=O)CSc2nnc(Cc3ccccc3)o2)c(=O)n(C)c1=O` [6-amino-3-methyl-5-[1-oxo-2-[[5-(phenylmethyl)-1,3,4-oxadiazol-2-yl]thio]ethyl]-1-propylpyrimidine-2,4-dione] was 9.96.
The compound `O=C(C1CCN(S(=O)(=O)c2cccc3nsnc23)CC1)N1CCc2ccccc2C1` [2-{[1-(2,1,3-benzothiadiazol-4-ylsulfonyl)piperidin-4-yl]carbonyl}-1,2,3,4-tetrahydroisoquinoline] showed a pEC50 of 4.47.
The same measure, in the same setting: the value for `O=C(CSc1nnc(CNc2ccccc2)o1)N1CCCc2ccccc21` [1-(3,4-Dihydro-2H-quinolin-1-yl)-2-(5-phenylaminomethyl-[1,3,4]oxadiazol-2-ylsulfanyl)-ethanone] was 4.46; that for `CCCCNc1cc(C(=O)O)cc(S(N)(=O)=O)c1Oc1ccccc1` [Fordiuran] was 8.97.
Still for that read-out and setting: the value for `Cc1[nH]c2ccccc2c1Cc1n[nH]c(=S)n1C` was 4.60.
Still for that read-out and setting: the same measure for `O=C(OCC(=O)N1CCN(C(=O)c2ccco2)CC1)c1sc2ccccc2c1Cl` [3-chloro-1-benzothiophene-2-carboxylic acid [2-[4-[2-furanyl(oxo)methyl]-1-piperazinyl]-2-oxoethyl] ester]: 6.22; for `O=C(CSc1nnc(-c2ccc(O)cc2)n1Cc1ccco1)N1CCc2ccccc2C1` [1-(3,4-Dihydro-1H-isoquinolin-2-yl)-2-[4-furan-2-ylmethyl-5-(4-hydroxy-phenyl)-4H-[1,2,4]triazol-3-ylsulfanyl]-ethanone]: 4.82; for `O=C(C1CC1)N1CCc2cc(S(=O)(=O)NC3CCN(Cc4ccccc4)CC3)ccc21` [1-[cyclopropyl(oxo)methyl]-N-[1-(phenylmethyl)-4-piperidinyl]-2,3-dihydroindole-5-sulfonamide]: 4.64.
In the case of `O=C1OC(c2ccc(O)cc2)(c2ccc(O)cc2)c2ccccc21`, the pEC50 was 5.48.
On the same count and under the same terms, the value for `COc1ccc(-n2cnnc2SCC(=O)Nc2cc(S(=O)(=O)N3CCCCC3)ccc2C)cc1` [2-[[4-(4-methoxyphenyl)-1,2,4-triazol-3-yl]sulfanyl]-N-(2-methyl-5-piperidin-1-ylsulfonyl-phenyl)ethanamide] was 5.33.
Same read-out and setting: the value for `O=C(OCC(=O)N1CCc2ccccc2C1)c1ccc(N2CCOCC2)c([N+](=O)[O-])c1` [4-(4-morpholinyl)-3-nitrobenzoic acid [2-(3,4-dihydro-1H-isoquinolin-2-yl)-2-oxoethyl] ester] was 5.23; that for `CC(=O)NCC1CCCN(c2nc3nonc3nc2N(C)Cc2ccccc2)C1` (centres undefined) [MLS000731683] was 5.77.
The same measure, in the same setting: the same measure for `Cc1ccc(/C=C2/Sc3ccccc3N(CC(=O)NCCCOC(C)C)C2=O)cc1` [2-[(2E)-2-[(4-methylphenyl)methylidene]-3-oxidanylidene-1,4-benzothiazin-4-yl]-N-(3-propan-2-yloxypropyl)ethanamide]: 3.56; for `COc1cc(C=NN(C)c2ccccc2)ccc1O`: 2.00; for `O=C(CSc1nccc(=O)[nH]1)N1CCc2ccccc2C1` [SMR000124078]: 5.04.
On to `O=C(NN=Cc1ccc(Cl)s1)C1COc2ccccc2O1` (centres undefined) [2,3-Dihydro-benzo[1,4]dioxine-2-carboxylic acid [1-(5-chloro-thiophen-2-yl)-meth-(Z)-ylidene]-hydrazide], for which the pEC50 is 4.49.
On the same count and under the same terms, the value for `O=S(=O)(NCCc1ccccc1F)c1cccc(S(=O)(=O)N2CCOCC2)c1` [MLS000076090] was 2.39.
Same read-out and setting: the same measure for `O=C(NCc1nc(-c2ccccc2)cs1)c1ccccc1` [MLS000661971]: 5.12; for `Cc1ccc2c(c1)nnn2C1CCN(S(=O)(=O)c2cccc(S(=O)(=O)N(C)C)c2)CC1` [MLS000033642]: 5.39.

Staying with this experiment, now noted: inactive by the depositor's call.
With `C=CCNC(=O)NC(=O)CSc1nc2cc([N+](=O)[O-])ccc2n1-c1cccc(C(F)(F)F)c1` [2-[5-nitro-1-[3-(trifluoromethyl)phenyl]benzimidazol-2-yl]sulfanyl-N-(prop-2-enylcarbamoyl)acetamide], the pEC50 is 4.72.
Same read-out and setting: the same measure for `CC(=O)Nc1ccc(S(=O)(=O)N2CCN(C(C)CCc3ccccc3)CC2)cc1` (centres undefined) [MLS000110551]: 4.17; for `S=C(NCCc1ccccc1)NCc1cccs1` [1-(2-phenylethyl)-3-(thiophen-2-ylmethyl)thiourea]: 5.24.
Regarding `COc1ccc(/C=C2\CCc3ccccc3C2=O)cc1CN1CCOCC1` [(2E)-2-[4-methoxy-3-(morpholinomethyl)benzylidene]tetralin-1-one], the pEC50 was 3.66. This pEC50 is 1.58 log units lower than that of the compound before.
Still for that read-out and setting: the same measure for `O=C(Nc1ccc(Cc2ccncc2)cc1)c1ccc(N2CCOCC2)c([N+](=O)[O-])c1` [4-(4-morpholinyl)-3-nitro-N-[4-(4-pyridinylmethyl)phenyl]benzamide]: 4.00; for `CC(C(=O)N=c1sc2ccccc2n1C)N1C(=O)C2CC=CCC2C1=O` (centres undefined): 3.92.
Same read-out and setting: the value for `COc1ccc(C(c2nnnn2Cc2cccs2)N2CCN(c3ccccc3F)CC2)cc1` (centres undefined) [1-(2-Fluoro-phenyl)-4-[(4-methoxy-phenyl)-(1-thiophen-2-ylmethyl-1H-tetrazol-5-yl)-methyl]-piperazine] was 4.88.
